Laboratory results taken from US7786141B2 (Vertex Pharmaceuticals Incorporated, priority 2004, dated 2010).

Key:
M1 muscarinic receptor = molecular target: T1, M1 muscarinic receptor (Homo sapiens, UniProt P11229); experiment: Functional mobilization of intracellular calcium (FLIPR) in M1-CHO cells; assay type: cell-based; details: M1-CHO cells, calcium mobilization (FLIPR); for Emax: read-out: M1 Efficacy
T1 construct: expressed in transfected cells; host or cells: CHO (M1-CHO)
T1 sequence (P11229 1-460): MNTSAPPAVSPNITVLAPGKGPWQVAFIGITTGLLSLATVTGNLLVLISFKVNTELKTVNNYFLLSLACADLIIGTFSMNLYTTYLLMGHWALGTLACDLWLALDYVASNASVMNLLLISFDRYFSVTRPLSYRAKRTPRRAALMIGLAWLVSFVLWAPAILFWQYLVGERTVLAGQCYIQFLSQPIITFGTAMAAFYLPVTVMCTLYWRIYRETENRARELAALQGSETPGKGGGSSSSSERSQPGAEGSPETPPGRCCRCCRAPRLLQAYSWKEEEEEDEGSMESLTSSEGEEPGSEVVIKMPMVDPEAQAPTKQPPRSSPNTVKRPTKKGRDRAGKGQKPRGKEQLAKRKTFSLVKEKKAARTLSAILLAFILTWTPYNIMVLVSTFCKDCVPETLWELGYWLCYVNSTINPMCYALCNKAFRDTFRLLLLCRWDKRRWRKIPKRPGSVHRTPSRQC
Summary of the method: (§1)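 Measured via Fluo-3 fluorescence on a FLIPR, CHO cells with either muscarinic subtype received compound in 0.5% DMSO. Antagonism was assessed after 15 min pre-incubation followed by carbachol at each subtype's EC80; agonism from compound addition alone.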

M4 muscarinic receptor = molecular target: T2, M4 muscarinic receptor (Homo sapiens, UniProt P08173); experiment: Functional mobilization of intracellular calcium (FLIPR) in M4-CHO cells; assay type: cell-based; details: M4-CHO cells, calcium mobilization (FLIPR); for Emax: read-out: M4 Efficacy
T2 construct: expressed in transfected cells; host or cells: CHO (M4-CHO)
T2 sequence (P08173 1-479): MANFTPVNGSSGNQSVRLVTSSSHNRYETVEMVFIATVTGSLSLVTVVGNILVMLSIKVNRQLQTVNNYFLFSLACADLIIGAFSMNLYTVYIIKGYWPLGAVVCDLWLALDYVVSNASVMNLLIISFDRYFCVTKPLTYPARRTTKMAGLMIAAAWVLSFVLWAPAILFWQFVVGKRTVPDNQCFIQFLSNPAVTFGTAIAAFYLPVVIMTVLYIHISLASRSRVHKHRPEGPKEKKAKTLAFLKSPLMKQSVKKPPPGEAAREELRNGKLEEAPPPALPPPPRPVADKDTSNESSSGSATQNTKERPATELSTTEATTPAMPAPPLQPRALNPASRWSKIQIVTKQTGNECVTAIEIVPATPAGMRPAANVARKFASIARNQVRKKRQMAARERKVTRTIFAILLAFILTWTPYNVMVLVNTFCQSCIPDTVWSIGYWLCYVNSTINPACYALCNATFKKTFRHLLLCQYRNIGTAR
Summary of the method: as §1

| Structure (SMILES) | EC50 (M1 muscarinic receptor) | Emax (M1 muscarinic receptor) | EC50 (M4 muscarinic receptor) | Emax (M4 muscarinic receptor) |
| --- | --- | --- | --- | --- |
| CC(=O)N1CC2(CCN(C3CCN(C(=O)OC(C)C)CC3)CC2)c2cc(C)ccc21 [compound 380] | < 0.1 µM | 65 to 85% | 0.1 to 1 µM | 65 to 85% |
| CCOC(=O)N1CCC(N2CCC3(CC2)CN(C(C)=O)c2c(F)cccc23)CC1 [compound 381] | < 0.1 µM | 65 to 85% | > 1 µM | < 65% |
| Cc1ccc2c(c1)C1(CCN(CC3CC4CCC3C4)CC1)CN2C(=O)OC(C)(C)C (centres unmarked) [compound 382] | < 0.1 µM | 65 to 85% | > 1 µM | 65 to 85% |
| COC(=O)N1C2CCC1CC(N1CCC3(CC1)CN(S(C)(=O)=O)c1ccc(F)cc13)C2 (centres unmarked) [compound 383] | < 0.1 µM | 65 to 85% | 0.1 to 1 µM | < 65% |
| CCOC(=O)N1CCC(N2CCC3(CC2)CN(C(=O)c2ccccc2)c2ccc(F)cc23)CC1 [compound 384] | 0.1 to 1 µM | < 65% | > 1 µM | < 65% |
| CC(=O)CN1CC2(CCN(C[C@@H]3C[C@H]4C=C[C@H]3C4)CC2)c2cc(F)ccc21 [compound 385] | 0.1 to 1 µM | 65 to 85% | > 1 µM | < 65% |
| CCCOC(=O)N1C2CCC1CC(N1CCC3(CC1)CN(C(=O)OC)c1ccc(F)cc13)C2 (centres unmarked) [compound 386] | 0.1 to 1 µM | < 65% | 0.1 to 1 µM | < 65% |
| CC(=O)N1CC2(CCN(C3CCCCC3)CC2)c2cc(F)ccc21 [compound 387] | < 0.1 µM | 65 to 85% | 0.1 to 1 µM | < 65% |
| CS(=O)(=O)N1CC2(CCN(C3CC4CCC(C3)N4C(=O)O[C@H]3CCOC3)CC2)c2cc(F)ccc21 (some centres unmarked) [compound 388] | < 0.1 µM | 65 to 85% | > 1 µM | < 65% |
| CCCOC(=O)N1C2CCC1CC(N1CCC3(CC1)CN(C(=O)C1CC1)c1ccc(F)cc13)C2 (centres unmarked) [compound 389] | 0.1 to 1 µM | 65 to 85% | > 1 µM | < 65% |
| CCOC(=O)N1C2CCC1CC(N1CCC3(CC1)CN(C(=O)C(C)C)c1ccc(F)cc13)C2 (centres unmarked) [compound 390] | < 0.1 µM | 65 to 85% | > 1 µM | < 65% |
| CCOC(=O)N1CCC(N2CCC3(CC2)CN(CCOC)c2ccc(F)cc23)CC1 [compound 391] | 0.1 to 1 µM | < 65% | > 1 µM | < 65% |
| CC(=O)NC1CC2(CCN(C[C@H]3C[C@H]4C=C[C@H]3C4)CC2)c2ccccc21 (some centres unmarked) [compound 392] | < 0.1 µM | 65 to 85% | > 1 µM | < 65% |
| CC(=O)N1CC2(CCN(CC3CCCCC3)CC2)c2cc(F)ccc21 [compound 393] | < 0.1 µM | 65 to 85% | > 1 µM | < 65% |
| CC(=O)N1CC2(CCN(C3CCN(C(=O)OCCF)C3)CC2)c2cc(F)ccc21 (centres unmarked) [compound 394] | < 0.1 µM | < 65% | 0.1 to 1 µM | < 65% |
| CC(=O)N1CC2(CCN(C3CCCN(C(=O)OC(C)C)CC3)CC2)c2cc(F)ccc21 (centres unmarked) [compound 395] | < 0.1 µM | < 65% | > 1 µM | < 65% |
| CCOC(=O)N1CCC(N2CCC3(CC2)CN(C(=O)c2c(F)cccc2F)c2ccc(F)cc23)CC1 [compound 396] | 0.1 to 1 µM | < 65% | > 1 µM | < 65% |
| Cc1ccc2c(c1)C1(CCN(C3CC4CCC(C4)C3)CC1)CN2 (centres unmarked) [compound 397] | 0.1 to 1 µM | 65 to 85% | > 1 µM | < 65% |
| CC(=O)N1CC2(CCN(C3CCN(C(=O)O[C@H]4CCOC4)CC3)CC2)c2cc(C)ccc21 [compound 398] | 0.1 to 1 µM | < 65% | > 1 µM | < 65% |
| CC(=O)N[C@H]1CC2(CCN(CC3CCN(C(=O)OC(C)C)CC3)CC2)c2ccccc21 [compound 399] | 0.1 to 1 µM | 65 to 85% | 0.1 to 1 µM | < 65% |
